US10941157B2, “Pesticidal compositions and uses thereof” (Gilead Apollo, LLC, priority 2015, dated 2021)
Values after ≈ are worked out from the molar mass of the structure shown. Where two headings read alike, the source gives them in different places.

Columns and labels:
[1] = system: Puccinia triticina; assay: Foliar protection test for wheat leaf rust control; assay type: in vivo; conditions: foliar application to wheat (Triticum aestivum cv. Winterhawk), evaluated 10 days later
[2] = system: Rhizoctonia solani (Rs); assay: In vitro pathogen growth inhibition assay, Rs (mycelial plugs); assay type: cell-based; conditions: Rhizoctonia solani, 48 h, mycelial plugs
Summary of the method: (§1)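 Spores of Dm, Fv and Pc were diluted in 17% V8 liquid medium; Rs used 1.5 mm mycelial plugs in ¼ PDB. Compounds from 2.5 mg/ml DMSO stocks were combined with inoculum, growth was read by OD600 at 24 and 48 h with blank subtraction, and the reported value is the concentration giving ≥90% inhibition.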

[3] = system: Fusarium graminearum; assay type: in vivo; conditions: corn from treated seeds, 0.025 mg/seed, F. graminearum inoculated
[4] = system: Diplodia maydis (Dm); assay: In vitro pathogen growth inhibition assay, Dm; assay type: cell-based; conditions: Stenocarpella maydis, 48 h
Summary of the method: as §1

[5] = system: Rhizoctonia solani; assay: Seed protectant for soybean seedling disease, R. solani; assay type: in vivo; conditions: soybean from treated seeds, 0.025 mg/seed, R. solani inoculated; for Plant Weight: fresh weight at 14 days; for Improvement in plant weight: percentage of non-inoculated non-treated controls
Summary of the method: (§2)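 Treated soybean seeds (cv. AG4832) sown over R. solani (sorghum) or P. ultimum (millet) inoculum, grown at 20–24 °C, 14 h light, 65% humidity. Emergence scored at 7 and 14 days; shoot fresh weight at 14 days compared against inoculated and non-inoculated untreated seeds.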

[6] = system: Botrtyis cinerea (Bc); assay: In vitro pathogen growth inhibition assay, Bc; assay type: cell-based; conditions: 48 h
Summary of the method: (§3)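 Value reported is the compound concentration reaching ≥90% growth inhibition, from OD readings at 24 and 48 h after blank subtraction, confirmed visually. Inoculum was spores diluted in 17% V8 medium, except Rs, using 1.5 mm mycelial plugs in ¼ PDB; actual compound concentration corrected via OD600.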

[7] = system: Septoria tritici (St); assay: In vitro pathogen growth inhibition assay, St; assay type: cell-based; conditions: Zymoseptoria tritici, 48 h
Summary of the method: as §3

[8] = system: Fusarium virguliforme (Fv); assay: In vitro pathogen growth inhibition assay, Fv; assay type: cell-based
Summary of the method: as §1

[9] = system: Fusarium graminearum; assay type: in vivo; conditions: spray on flowering Triticum aestivum cv. Samson, inoculated 24 hours after treatment, evaluated 14 days later
[10] = system: Pythium ultimum; assay: Seed protectant for soybean seedling disease, P. ultimum; assay type: in vivo; conditions: soybean from treated seeds, 0.025 mg/seed, P. ultimum inoculated; for Plant Weight: fresh weight at 14 days; for Improvement in plant weight: percentage of non-inoculated non-treated controls
Summary of the method: as §2

[11] = system: Phytophthora capsici (Pc); assay: In vitro pathogen growth inhibition assay, Pc; assay type: cell-based; conditions: 48 h
Summary of the method: as §1

[12] = system: Blumeria graminis f. sp. hordei; assay: Foliar protection test for barley powdery mildew control; assay type: in vivo; conditions: foliar spray on Hordeum vulgare cv. Perry, inoculated 24 hours after treatment, evaluated 7 days later
Summary of the method: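 Protective foliar test: compound atomized onto both leaf surfaces of 6-day-old Hordeum vulgare cv. Perry, followed after 24 h by spore-cloud inoculation from colonized untreated plants. Disease rated on leaves 7 days on, plants held at 20 to 22° C and 70% RH.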

[13] = system: Fusarium moniliforme (Fm); assay: In vitro pathogen growth inhibition assay, Fm; assay type: cell-based; conditions: Fusarium verticillioides
Summary of the method: as §3

[14] = ≥90% growth inhibition, 48 hours, vs 2% DMSO control, read-out: Compound Concentration (ppm) sufficient for ≥90% inhibition of Rs
[15] = ≥90% growth inhibition, 48 hours, vs 2% DMSO control, read-out: Compound Concentration (ppm) sufficient for ≥90% inhibition of Dm
[16] = ≥90% growth inhibition, 48 hours, vs 2% DMSO control, read-out: Compound Concentration (ppm) sufficient for ≥90% inhibition of Bc
[17] = ≥90% growth inhibition, 48 hours, vs 2% DMSO control, read-out: Compound Concentration (ppm) sufficient for ≥90% inhibition of St
[18] = ≥90% growth inhibition, 48 hours, vs 2% DMSO control, read-out: Compound Concentration (ppm) sufficient for ≥90% inhibition of Fv
[19] = ≥90% growth inhibition, 48 hours, vs 2% DMSO control, read-out: Compound Concentration (ppm) sufficient for ≥90% inhibition of Pc
[20] = ≥90% growth inhibition, 48 hours, vs 2% DMSO control, read-out: Compound Concentration (ppm) sufficient for ≥90% inhibition of Fm

SMILES	Wheat Leaf Rust Control at a compound concentration of 10 ppm or lower [1]	IC90 [2, 14] [µg/mL]	Plant Height ([3]; Table 12) [cm]	IC90 [4, 15] [µg/mL]	Plant Weight [5] [g]	Improvement in plant weight [5] [%]	IC90 [6, 16] [µg/mL]	IC90 [7, 17] [µg/mL]	IC90 [8, 18] [µg/mL]	Wheat Fusarium Head Blight Control at a compound concentration of 25 ppm or lower [9]	Plant Weight [10] [g]	Improvement in plant weight [10] [%]	IC90 [11, 19] [µg/mL]	Barley Powdery Mildew Control at a compound concentration of 10 ppm or lower [12]	IC90 [13, 20] [µg/mL]	Plant Height ([3]; Table 13) [cm]	other results
COc1ccc(F)cc1[C@H](Cn1c(=O)n(C(C)(C)C(=O)NC(C)C)c(=O)c2c(C)c(-n3cccn3)sc21)OCCC#N [Compound I-191, (R)-2-(1-(2-(2-cyanoethoxy)-2-(5-fluoro-2-methoxyphenyl)ethyl)-5-methyl-2,4-dioxo-6-(1H-pyrazol-1-yl)-1,4-dihydrothieno[2,3-d]pyrimidin-3 (2H)-yl)-N-isopropyl-2-methylpropanamide]	AA (≥85% control of wheat leaf rust)	0.08 (≈ 0.134 µM)	35.50	≥ 0.4	6.39	79.6	0.4 (≈ 0.67 µM)	≥ 10	0.4 (≈ 0.67 µM)	C (from 25 to 49% control of wheat fusarium head blight)	5.00	80	50 (≈ 83.8 µM)	AA (≥85% control of barley powdery mildew)	0.08 (≈ 0.134 µM)		
COc1ccc(F)cc1[C@H](Cn1c(=O)n(C(C)(C)C(=O)NC(C)C)c(=O)c2c(C)c(-n3nccn3)sc21)OCCC#N [Compound I-095, (R)-2-(1-(2-(2-cyanoethoxy)-2-(5-fluoro-2-methoxyphenyl)ethyl)-5-methyl-2,4-dioxo-6-(2H-1,2,3-triazol-2-yl)-1,4-dihydrothieno[2,3-d]pyrimidin-3 (2H)-yl)-N-isopropyl-2-methylpropanamide]	AA (≥85% control of wheat leaf rust)		39.41		7.54	93.9				B (from 50 to 69% control of wheat fusarium head blight)	4.65	74		AA (≥85% control of barley powdery mildew)		43.97	IC90 ([2]; ≥90% inhibition, 48 hours vs 2% DMSO control, read-out: Compound Concentration (ppm) sufficient for ≥90% inhibition of growth, Rs): 0.08 µg/mL (≈ 0.134 µM); IC90 ([4]; ≥90% inhibition, 48 hours vs 2% DMSO control, read-out: Compound Concentration (ppm) sufficient for ≥90% inhibition of growth, Dm): 0.08 µg/mL (≈ 0.134 µM); IC90 ([6]; ≥90% inhibition, 48 hours vs 2% DMSO control, read-out: Compound Concentration (ppm) sufficient for ≥90% inhibition of growth, Bc): 0.4 µg/mL (≈ 0.669 µM); IC90 ([7]; ≥90% inhibition, 48 hours vs 2% DMSO control, read-out: Compound Concentration (ppm) sufficient for ≥90% inhibition of growth, St): > 50 µg/mL; IC90 ([8]; ≥90% inhibition, 48 hours vs 2% DMSO control, read-out: Compound Concentration (ppm) sufficient for ≥90% inhibition of growth, Fv): 0.08 µg/mL (≈ 0.134 µM); IC90 ([11]; ≥90% inhibition, 48 hours vs 2% DMSO control, read-out: Compound Concentration (ppm) sufficient for ≥90% inhibition of growth, Pc): ≥ 2 µg/mL; IC90 ([13]; ≥90% inhibition, 48 hours vs 2% DMSO control, read-out: Compound Concentration (ppm) sufficient for ≥90% inhibition of growth, Fm): 0.08 µg/mL (≈ 0.134 µM)
COc1ccccc1[C@H](Cn1c(=O)n(C(C)(C)C(=O)NC(C)C)c(=O)c2c(C)c(-n3nccn3)sc21)OCCC#N [Compound I-193, (R)-2-(1-(2-(2-cyanoethoxy)-2-(2-methoxyphenyl)ethyl)-5-methyl-2,4-dioxo-6-(2H-1,2,3-triazol-2-yl)-1,4-dihydrothieno[2,3-d]pyrimidin-3 (2H)-yl)-N-isopropyl-2-methylpropanamide]	AA (≥85% control of wheat leaf rust)	0.08 (≈ 0.138 µM)		0.08 (≈ 0.138 µM)	6.83	85.0	≥ 0.08	≥ 2	0.4 (≈ 0.69 µM)	B (from 50 to 69% control of wheat fusarium head blight)	5.36	86	2 (≈ 3.45 µM)	AA (≥85% control of barley powdery mildew)	0.08 (≈ 0.138 µM)	40.66	
